Columns and labels:
[1] = target: T1, Human HDAC2 (Homo sapiens, UniProt Q92769); experiment: HDAC2 biochemical assay, AMC-labeled peptide substrate; settings: read-out: HDAC Isoform IC50 (nM) 2
T1 construct: full length with C-terminal GST-tag; GST (C); host or cells: baculovirus expression system
Procedure: (§1) Activity against all zinc-dependent HDACs 1 to 11 was assessed by using an acetylated AMC-labeled peptide substrate. The substrate RHKK(Ac)AMC was used for HDAC1, HDAC2, HDAC3, HDAC6 and HDAC10; the substrate used for HDAC8 was RHK(Ac)K(Ac)AMC. Activity against the class IIa HDACs (HDAC4, 5, 7, 9) and HDAC11 was determined using a class IIa-specific substrate, BOC-Lys(trifluoroacetyl)-AMC (“Trifluoroacetyl Lysine”; see Lahm et al, 2007, PNAS, 104, 17335-17340). All assays were based on the AMC-labeled substrate and developer combination.
(§2) The protocol involved a two-step reaction: first, the substrate with the acetylated lysine side chain is incubated with a sample containing HDAC activity, to produce the deacetylated products, which are then digested in the second step by the addition of developer to produce the fluorescent signal proportional to the amount of deacetylated substrates.
Human HDAC2 (GenBank Accession No. NM_001527), full length with C-terminal GST-tag, MW=82.9 kDa, expressed inbaculovirus expression system.
(§3) Assay Buffer: 50 mM Tris-HCl, pH8.0, 137 mM NaCl, 2.7 mM KCl, 1 mM MgC2. Before use, 1 mg/mL BSA and DMSO are added.
HDAC2: 0.07 ng/ul HDAC2 and 50 μM HDAC substrate are in the reaction buffer with 1% DMSO final. Incubate for 1 hour at 30° C.
(§4) Stage 1: Deacetylation of substrate by incubation of HDAC enzymes with compounds
(§5) Stage 2: Development by addition of Developer to digest the deacetylated substrate, and generate the fluorescent colour; Detection: 360/460 Ex/Em

[2] = target: T2, Human HDAC4 (Homo sapiens, UniProt P56524); experiment: HDAC4 biochemical assay, class IIa-specific substrate; settings: read-out: HDAC Isoform IC50 (nM) 4
T2 construct: amino acids 627-1085 with N-terminal GST tag; GST (N); host or cells: baculovirus expression system
Outline: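 Two-step fluorogenic read-out: deacetylated BOC-Lys(trifluoroacetyl)-AMC (50 μM) was digested by developer and measured at Ex/Em 360/460. Deacetylation by 0.004 ng/ul HDAC4 (aa 627-1085, N-terminal GST) ran 30 min at room temperature, pH 8.0 Tris buffer, 1 mg/mL BSA, 1% DMSO.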

[3] = target: T3, Human HDAC5 (Homo sapiens, UniProt Q9UQL6); experiment: HDAC5 biochemical assay, class IIa-specific substrate; settings: read-out: HDAC Isoform IC50 (nM) 5
T3 construct: full length with C-terminal His tag, MW=51.1 kDa; His (C); host or cells: baculovirus expression system
Outline: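 Two-step fluorogenic read-out: deacetylated trifluoroacetyl-lysine AMC substrate (50 μM) digested by developer, measured at Ex/Em 360/460. Deacetylation step: 0.05 ng/ul His-tagged full-length baculoviral enzyme with compound, 30 min, room temperature, pH 8.0 Tris with 1 mg/mL BSA and 1% DMSO.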

[4] = target: T4, Human HDAC8 (Homo sapiens, UniProt Q9BY41); experiment: HDAC8 biochemical assay, AMC-labeled peptide substrate; settings: read-out: HDAC Isoform IC50 (nM) 8
T4 construct: full length with C-terminal His tag, MW=42.6 kDa; His (C); host or cells: baculovirus expression system
T4 sequence (Q9BY41 1-377): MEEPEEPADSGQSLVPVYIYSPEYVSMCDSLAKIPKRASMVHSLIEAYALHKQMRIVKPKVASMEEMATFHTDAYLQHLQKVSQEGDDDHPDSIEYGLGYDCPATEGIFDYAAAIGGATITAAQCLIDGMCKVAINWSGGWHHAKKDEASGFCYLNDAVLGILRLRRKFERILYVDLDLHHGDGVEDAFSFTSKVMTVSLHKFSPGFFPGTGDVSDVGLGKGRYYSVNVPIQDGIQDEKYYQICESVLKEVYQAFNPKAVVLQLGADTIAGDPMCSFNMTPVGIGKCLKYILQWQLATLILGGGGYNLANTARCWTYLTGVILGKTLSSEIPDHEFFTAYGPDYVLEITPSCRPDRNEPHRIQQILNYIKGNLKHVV
Procedure: as §1, §2
Human HDAC8 (GenBankAccession No. NM_018486), full length with C-terminal His tag, MW=42.6 kDa, expressed in a baculovirus expression system.
as §3
HDAC8: 1 ng/ul HDAC8 and 100 µM HDAC8 substrate are in the reaction buffer with 1% DMSO final. Incubate for 2 hours at 30° C.
as §4, §5

[5] = target: T5, Human HDAC9 (Homo sapiens, UniProt Q9UKV0); experiment: HDAC9 biochemical assay, class IIa-specific substrate; settings: read-out: HDAC Isoform IC50 (nM) 9
T5 construct: amino acids 604-1066 with C-terminal His tag; His (C); host or cells: baculovirus expression system
Outline: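 HDAC9 residues 604-1066 (C-terminal His tag, baculovirus-expressed) at 0.06 ng/ul with 50 μM class IIa substrate Boc-Lys(trifluoroacetyl)-AMC in Tris-HCl pH 8.0 buffer with BSA and 1% DMSO. 30 min at room temperature, then developer added; fluorescence read at 360/460 nm Ex/Em.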

[6] = target: T6, Human HDAC10 (Homo sapiens, UniProt Q969S8); experiment: HDAC10 biochemical assay, AMC-labeled peptide substrate; settings: read-out: HDAC Isoform IC50 (nM) 10
T6 construct: Human HDAC10 (a.a. 1-481); GST (N); His (C); host or cells: baculovirus expression system
T6 sequence (Q969S8 1-481): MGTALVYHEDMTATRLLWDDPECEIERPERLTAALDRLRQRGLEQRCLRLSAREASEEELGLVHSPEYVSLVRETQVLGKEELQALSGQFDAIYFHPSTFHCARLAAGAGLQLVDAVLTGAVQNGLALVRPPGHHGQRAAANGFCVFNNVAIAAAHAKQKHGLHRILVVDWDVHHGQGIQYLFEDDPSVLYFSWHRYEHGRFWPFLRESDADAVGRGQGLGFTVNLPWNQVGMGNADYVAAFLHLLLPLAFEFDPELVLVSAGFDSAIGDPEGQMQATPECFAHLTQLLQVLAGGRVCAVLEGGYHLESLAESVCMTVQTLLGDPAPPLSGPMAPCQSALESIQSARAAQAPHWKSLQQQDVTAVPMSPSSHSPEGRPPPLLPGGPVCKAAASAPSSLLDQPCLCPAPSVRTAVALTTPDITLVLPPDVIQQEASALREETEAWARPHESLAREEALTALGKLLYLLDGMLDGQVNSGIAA
Procedure: as §1, §2
Human HDAC10 (a.a. 1-481), GenBank Accession No. NM_032019 with N-terminal GST tag and C-terminal His tag, MW=78 kDa, expressed in baculovirus expression system.
as §3
HDAC10: 12 ng/ul HDAC10 and 50 μM HDAC substrate are in the reaction buffer with 1% DMSO final. Incubate for 2 hours at 30° C.
as §4, §5

T5 sequence (Q9UKV0 604-1066 isoform Q9UKV0-5): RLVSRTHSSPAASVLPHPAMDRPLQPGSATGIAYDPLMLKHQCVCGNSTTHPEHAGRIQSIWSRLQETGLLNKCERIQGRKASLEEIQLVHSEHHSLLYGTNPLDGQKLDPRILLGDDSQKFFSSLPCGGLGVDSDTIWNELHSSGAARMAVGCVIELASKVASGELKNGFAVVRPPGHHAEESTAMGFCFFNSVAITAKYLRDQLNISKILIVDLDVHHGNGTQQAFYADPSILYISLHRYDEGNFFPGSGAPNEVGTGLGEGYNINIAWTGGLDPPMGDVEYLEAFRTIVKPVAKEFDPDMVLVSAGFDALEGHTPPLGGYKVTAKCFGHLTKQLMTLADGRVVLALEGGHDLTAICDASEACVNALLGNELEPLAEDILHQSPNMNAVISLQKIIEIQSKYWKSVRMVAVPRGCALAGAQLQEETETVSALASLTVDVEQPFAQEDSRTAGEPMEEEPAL
T2 sequence (P56524 627-1084 limits assumed): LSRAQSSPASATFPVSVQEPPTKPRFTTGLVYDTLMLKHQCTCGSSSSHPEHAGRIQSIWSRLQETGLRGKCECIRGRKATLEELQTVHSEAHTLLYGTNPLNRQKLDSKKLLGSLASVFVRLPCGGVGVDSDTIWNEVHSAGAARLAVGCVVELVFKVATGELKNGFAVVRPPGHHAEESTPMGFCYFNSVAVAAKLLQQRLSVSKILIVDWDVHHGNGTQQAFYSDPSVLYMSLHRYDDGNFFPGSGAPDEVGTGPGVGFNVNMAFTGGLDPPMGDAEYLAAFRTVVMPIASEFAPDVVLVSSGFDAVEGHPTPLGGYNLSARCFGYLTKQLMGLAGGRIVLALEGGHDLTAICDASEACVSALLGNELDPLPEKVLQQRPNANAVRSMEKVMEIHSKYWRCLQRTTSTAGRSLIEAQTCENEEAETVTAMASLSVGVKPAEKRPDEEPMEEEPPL
T3 sequence (Q9UQL6 656-1122 limits assumed): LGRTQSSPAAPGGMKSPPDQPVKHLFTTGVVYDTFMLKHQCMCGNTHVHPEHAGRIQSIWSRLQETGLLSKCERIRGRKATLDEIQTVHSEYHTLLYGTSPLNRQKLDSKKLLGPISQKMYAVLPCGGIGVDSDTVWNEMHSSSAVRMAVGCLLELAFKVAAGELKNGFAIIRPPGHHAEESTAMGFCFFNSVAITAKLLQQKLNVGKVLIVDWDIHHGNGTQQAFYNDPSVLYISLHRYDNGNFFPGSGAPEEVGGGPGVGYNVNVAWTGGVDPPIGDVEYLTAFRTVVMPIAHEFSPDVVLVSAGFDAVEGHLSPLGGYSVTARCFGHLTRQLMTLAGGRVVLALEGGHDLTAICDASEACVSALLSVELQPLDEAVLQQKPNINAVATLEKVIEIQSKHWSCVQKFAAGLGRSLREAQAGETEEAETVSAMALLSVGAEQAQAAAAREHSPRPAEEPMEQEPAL
T1 sequence (Q92769 whole entry, canonical isoform): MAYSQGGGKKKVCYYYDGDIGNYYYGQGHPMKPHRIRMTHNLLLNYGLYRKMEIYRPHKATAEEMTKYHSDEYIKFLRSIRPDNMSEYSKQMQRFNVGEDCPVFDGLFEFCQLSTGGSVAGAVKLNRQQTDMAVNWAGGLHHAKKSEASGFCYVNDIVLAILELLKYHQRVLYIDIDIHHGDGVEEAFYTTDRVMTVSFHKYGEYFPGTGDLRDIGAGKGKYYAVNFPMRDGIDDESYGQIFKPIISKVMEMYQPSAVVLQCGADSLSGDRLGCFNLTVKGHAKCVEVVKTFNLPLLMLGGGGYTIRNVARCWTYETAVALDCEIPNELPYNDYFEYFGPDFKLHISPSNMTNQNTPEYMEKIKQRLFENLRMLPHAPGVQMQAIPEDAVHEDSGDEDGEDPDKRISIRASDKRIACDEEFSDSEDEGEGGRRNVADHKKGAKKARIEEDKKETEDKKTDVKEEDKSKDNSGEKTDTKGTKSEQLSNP

IC50 [1] [nM]	IC50 [2] [nM]	IC50 [3] [nM]	IC50 [4] [nM]	IC50 [5] [nM]	IC50 [6] [nM]	Compound
> 10000	≤ 1000	≤ 500	≤ 10000	≤ 10000	> 10000	Cc1cncc(N(Cc2ccc(-c3noc(C(F)(F)F)n3)s2)c2cnccn2)n1 [Example BP, 6-Methyl-N-(pyrazin-2-yl)-N-({5-[5-(trifluoromethyl)-1,2,4-oxadiazol-3-yl]thiophen-2-yl}methyl)pyrazin-2-amine]
> 10000	≤ 10000	≤ 10000	≤ 10000	≤ 10000	> 10000	FC(F)(F)c1cnc(N(Cc2ccc(-c3noc(C(F)(F)F)n3)s2)c2cnccn2)cn1 [Example BK, N-(Pyrazin-2-yl)-5-(trifluoromethyl)-N-({5-[5-(trifluoromethyl)-1,2,4-oxadiazol-3-yl]thiophen-2-yl}methyl)pyrazin-2-amine]
> 10000	≤ 500	≤ 500	≤ 10000	≤ 10000	> 10000	O=C(c1ccc(N(Cc2ccc(-c3noc(C(F)(F)F)n3)s2)c2cnccn2)nn1)N1CC[S+]([O-])CC1 [Example FD, 4-{6-[(Pyrazin-2-yl)({5-[5-(trifluoromethyl)-1,2,4-oxadiazol-3-yl]thiophen-2-yl}methyl)amino]pyridazine-3-carbonyl}-1lambda4-thiomorpholin-1-one]
> 10000	≤ 10000	≤ 10000	≤ 10000	≤ 10000	> 10000	FC(F)(F)c1cnnc(N(Cc2ccc(-c3noc(C(F)(F)F)n3)s2)c2cnccn2)c1 [Example EF, N-(Pyrazin-2-yl)-5-(trifluoromethyl)-N-({5-[5-(trifluoromethyl)-1,2,4-oxadiazol-3-yl]thiophen-2-yl}methyl)pyridazin-3-amine]
> 10000	≤ 500	≤ 500	≤ 1000	≤ 500	> 10000	O=C(c1ccc(N(Cc2ccc(-c3noc(C(F)(F)F)n3)s2)c2cnccn2)nn1)N1CC(O)(C(F)(F)F)C1 [Example FK, 1-{6-[(Pyrazin-2-yl)({5-[5-(trifluoromethyl)-1,2,4-oxadiazol-3-yl]thiophen-2-yl}methyl)amino]pyridazine-3-carbonyl}-3-(trifluoromethyl)azetidin-3-ol]
> 10000	≤ 10000	≤ 10000	≤ 10000	≤ 10000	> 10000	CC(F)(F)c1cnnc(N(Cc2ccc(-c3noc(C(F)(F)F)n3)s2)c2cnccn2)c1 [Example GU, 5-(1,1-Difluoroethyl)-N-(pyrazin-2-yl)-N-({5-[5-(trifluoromethyl)-1,2,4-oxadiazol-3-yl]thiophen-2-yl}methyl)pyridazin-3-amine]
> 10000	≤ 10000	≤ 10000	≤ 10000	≤ 10000	> 10000	COc1cnc(N(Cc2ccc(-c3noc(C(F)(F)F)n3)s2)c2cnccn2)cn1 [Example BI, 5-Methoxy-N-(pyrazin-2-yl)-N-({5-[5-(trifluoromethyl)-1,2,4-oxadiazol-3-yl]thiophen-2-yl}methyl)pyrazin-2-amine]
> 10000	≤ 10000	≤ 10000	≤ 10000	> 10000	> 10000	O=C(O)c1cnnc(N(Cc2ccc(-c3noc(C(F)(F)F)n3)s2)c2cc(C(F)(F)F)cnn2)c1 [Example ES, 6-[({5-[5-(Trifluoromethyl)-1,2,4-oxadiazol-3-yl]thiophen-2-yl}methyl)[5-(trifluoromethyl)pyridazin-3-yl]amino]pyridazine-4-carboxylicacid]
> 10000	≤ 1000	≤ 1000	≤ 10000	≤ 10000	> 10000	Cc1cnc(N(Cc2ccc(-c3noc(C(F)(F)F)n3)s2)c2cnccn2)cn1 [Example BH, 5-Methyl-N-(pyrazin-2-yl)-N-({5-[5-(trifluoromethyl)-1,2,4-oxadiazol-3-yl]thiophen-2-yl}methyl)pyrazin-2-amine]
> 10000	≤ 10000	≤ 10000	≤ 10000	≤ 10000	> 10000	CN(C)C1CN(C(=O)c2cnnc(N(Cc3ccc(-c4noc(C(F)(F)F)n4)s3)c3cnccn3)c2)C1 [Example FX, 5-[3-(Dimethylamino)azetidine-1-carbonyl]-N-(pyrazin-2-yl)-N-({5-[5-(trifluoromethyl)-1,2,4-oxadiazol-3-yl]thiophen-2-yl}methyl)pyridazin-3-amine]
> 10000	≤ 10000	≤ 10000	≤ 10000	≤ 10000	> 10000	FC(F)(F)c1cncc(N(Cc2ccc(-c3noc(C(F)(F)F)n3)s2)c2cnccn2)n1 [Example BR, N-(Pyrazin-2-yl)-6-(trifluoromethyl)-N-({5-[5-(trifluoromethyl)-1,2,4-oxadiazol-3-yl]thiophen-2-yl}methyl)pyrazin-2-amine]
> 10000	≤ 1000	≤ 500	≤ 10000	≤ 10000	> 10000	NC(=O)c1cnnc(N(Cc2ccc(-c3noc(C(F)(F)F)n3)s2)c2cnccn2)c1 [Example DX, 6-[(Pyrazin-2-yl)({5-[5-(trifluoromethyl)-1,2,4-oxadiazol-3-yl]thiophen-2-yl}methyl)amino]pyridazine-4-carboxamide]
